Source: patent EP1066315B1 (University of Dundee, priority 1998, dated 2008)
Residues, ends and D or L forms follow the SMILES beside them. *: point of attachment. Fmoc = O=C(OCC1c2ccccc2-c2ccccc21)*

Legend:
[1] = tested on: purified AEP (legumain from pig kidney); test: Digestion of TTCF with purified AEP in the presence of tetrapeptides; type: biochemical; details: 0.2 mg/ml peptide; Fig 3a
Description: The invention will now be described by reference to the following Examples and Figures wherein • Figure 1: Processing of TTCF by a leupeptin-insensitive cysteine endopeptidase activity. (a) TTCF was digested in vitro in the presence of disrupted lysosomes (1-2 µg) in the presence or absence of iodoacetamide (1 mM), leupeptin, E64 or pepstatin (each at 0.1 mg/ml). Digestions were in 0.1 M NH4 acetate at pH 4.5 or Na2HPO4, pH 6.0 or 7.0. After 4 hours at 37°C, the reactions were separated by Tris-tricine SDS-PAGE and stained with Coomassie Blue. (b) Cleavage sites: TTCF digestion products were separated by SDS PAGE and electrophoretically transferred to nitrocellulose membrane. Individual fragments numbered 1-6 were subjected to 5 cycles of Edman degradation. N-terminal sequence obtained is shown in bold following upstream residues from TTCF (tetanus toxin numbering). The N-terminal sequence of His-tagged TTCF was obtained for fragments 1 and 3. (c) Residues Asn 1184 and Glu 1184 in TTCF were mutated to alanine (see Methods) and digestions performed as before. The mutation abolishes cleavage at the mutated site but not at the first site (doublet at 47 kD). In this experiment cleavage of the third site was minimal. • Figure 2: TTCF is processed by an asparaginyl endopeptidase. (a) Chromatography of the TTCF processing activity on Mono-S resin. Fractions eluted by NaCl gradient were incubated with the substrates Z-Ala-Ala-Asn-NHMec or Z-Phe-Arg-NHMec in the presence or absence of E64 (trans-epoxysuccinyl-L-leucylamido-(4-guanidino)butane). […] (b) Fractions as above were incubated with 10 µg TTCF in the presence or absence of E64 for 4 hours at 37°C prior to SDS-PAGE analysis. (c) Each fraction was analysed by SDS-PAGE and Western blotting. Electrophoretically transferred material was probed with an affinity purified antiserum raised against the peptide KGIGSGKVLKSGPQC from human legumain^1. • Figure 3: Peptide inhibitors of AEP block asparaginyl endopeptidase activity and TTCF processing in vitro and in vivo. […] Release of 7-amino-4-methyl coumarin was measured after 10, 20 or 30 minutes. […] At different times the cells were washed, fixed in 0.05 % glutaraldehyde and antigen presentation measured using proliferation of different autologous TTCF-specific T cell clones. c, AEP pre-processing of TTCF speeds antigen presentation. […] Presentation was measured after 60 minutes of antigen pulsing using EBV B cells.
We decided to test the possibility that high concentrations of asparagine containing peptides might act as competitive inhibitors. […] To establish that inhibition of AEP was specific, we measured the hydrolysis of different synthetic peptide substrates in the presence and absence of these tetrapeptides.

[2] = tested on: peripheral blood mononuclear cells (PBMC) / autologous TTCF specific T cell clones; test: TTCF antigen presentation by PBMC, read out as proliferation of autologous T cell clones; type: cell-based, human; details: PBMC, 1 mg/ml peptide, between 30 and 60 minutes of antigen pulsing; Fig 9a
Description: The invention will now be described by reference to the following Examples and Figures wherein • Figure 1: Processing of TTCF by a leupeptin-insensitive cysteine endopeptidase activity. (a) TTCF was digested in vitro in the presence of disrupted lysosomes (1-2 µg) in the presence or absence of iodoacetamide (1 mM), leupeptin, E64 or pepstatin (each at 0.1 mg/ml). Digestions were in 0.1 M NH4 acetate at pH 4.5 or Na2HPO4, pH 6.0 or 7.0. After 4 hours at 37°C, the reactions were separated by Tris-tricine SDS-PAGE and stained with Coomassie Blue. (b) Cleavage sites: TTCF digestion products were separated by SDS PAGE and electrophoretically transferred to nitrocellulose membrane. Individual fragments numbered 1-6 were subjected to 5 cycles of Edman degradation. N-terminal sequence obtained is shown in bold following upstream residues from TTCF (tetanus toxin numbering). The N-terminal sequence of His-tagged TTCF was obtained for fragments 1 and 3. (c) Residues Asn 1184 and Glu 1184 in TTCF were mutated to alanine (see Methods) and digestions performed as before. The mutation abolishes cleavage at the mutated site but not at the first site (doublet at 47 kD). In this experiment cleavage of the third site was minimal. • Figure 2: TTCF is processed by an asparaginyl endopeptidase. (a) Chromatography of the TTCF processing activity on Mono-S resin. Fractions eluted by NaCl gradient were incubated with the substrates Z-Ala-Ala-Asn-NHMec or Z-Phe-Arg-NHMec in the presence or absence of E64 (trans-epoxysuccinyl-L-leucylamido-(4-guanidino)butane). […] (b) Fractions as above were incubated with 10 µg TTCF in the presence or absence of E64 for 4 hours at 37°C prior to SDS-PAGE analysis. (c) Each fraction was analysed by SDS-PAGE and Western blotting. Electrophoretically transferred material was probed with an affinity purified antiserum raised against the peptide KGIGSGKVLKSGPQC from human legumain^1. • Figure 3: Peptide inhibitors of AEP block asparaginyl endopeptidase activity and TTCF processing in vitro and in vivo. (a) TTCF was digested with purified AEP (legumain from pig kidney) in the presence or absence of 0.2 mg/ml of the peptides indicated. […] (b) Purified AEP or a crude lysosomal protease mixture were incubated with Z-Ala-Ala-Asn-NHMec, Z-Phe-Arg-NHMec (cathepsins L&B) or Z-Val-Val-Ala NHMec (cathepsin S) in the presence of increasing concentrations of AENK or AEQK. Release of 7-amino-4-methyl coumarin was measured after 10, 20 or 30 minutes. […] At different times the cells were washed, fixed in 0.05 % glutaraldehyde and co-cultured with autologous TTCF specific T cell clones. […] Proteins obtained from commercial sources, as described in the literature or custom peptides were digested with purified pig kidney legumain at pH 5.5 in the presence of 1 mM DTT. […] When present peptide was maintained during antigen pulsing at 1 mg/ml (a) or 2 mg/ml (b). At different times the cells were washed, fixed in 0.05 % glutaraldehyde and antigen presentation measured using proliferation of different autologous TTCF-specific T cell clones. c, AEP pre-processing of TTCF speeds antigen presentation. […] Presentation was measured after 60 minutes of antigen pulsing using EBV B cells.
If AEP plays a role in TTCF processing in antigen presenting cells then sufficiently high levels of the competing AENK peptide might be expected to interfere with normal class II MHC loading of TTCF epitopes. Following a 15 minute preincubation with or without tetrapeptides, freshly isolated peripheral blood mononuclear cells (PBMC) were incubated with TTCF antigen in the continued presence or absence of the peptides. At different times, the cells were washed, fixed and then co-cultured with different autologous T cell clones to assess expression of different peptide/MHC complexes. […] At later times there was some recovery of presentation of these epitopes as expected for a competitive inhibitor. […]

[3] = tested on: EBV-transformed B cells / autologous TTCF-specific T cell clones; test: TTCF antigen presentation by EBV-transformed B cells, read out as proliferation of autologous T cell clones; type: cell-based, human; details: EBV-B cells from donor, 2 mg/ml peptide; Fig 9b
Description: The invention will now be described by reference to the following Examples and Figures wherein • Figure 1: Processing of TTCF by a leupeptin-insensitive cysteine endopeptidase activity. (a) TTCF was digested in vitro in the presence of disrupted lysosomes (1-2 µg) in the presence or absence of iodoacetamide (1 mM), leupeptin, E64 or pepstatin (each at 0.1 mg/ml). Digestions were in 0.1 M NH4 acetate at pH 4.5 or Na2HPO4, pH 6.0 or 7.0. After 4 hours at 37°C, the reactions were separated by Tris-tricine SDS-PAGE and stained with Coomassie Blue. (b) Cleavage sites: TTCF digestion products were separated by SDS PAGE and electrophoretically transferred to nitrocellulose membrane. Individual fragments numbered 1-6 were subjected to 5 cycles of Edman degradation. N-terminal sequence obtained is shown in bold following upstream residues from TTCF (tetanus toxin numbering). The N-terminal sequence of His-tagged TTCF was obtained for fragments 1 and 3. (c) Residues Asn 1184 and Glu 1184 in TTCF were mutated to alanine (see Methods) and digestions performed as before. The mutation abolishes cleavage at the mutated site but not at the first site (doublet at 47 kD). In this experiment cleavage of the third site was minimal. • Figure 2: TTCF is processed by an asparaginyl endopeptidase. (a) Chromatography of the TTCF processing activity on Mono-S resin. Fractions eluted by NaCl gradient were incubated with the substrates Z-Ala-Ala-Asn-NHMec or Z-Phe-Arg-NHMec in the presence or absence of E64 (trans-epoxysuccinyl-L-leucylamido-(4-guanidino)butane). […] (c) Each fraction was analysed by SDS-PAGE and Western blotting. […] Release of 7-amino-4-methyl coumarin was measured after 10, 20 or 30 minutes. […] At different times the cells were washed, fixed in 0.05 % glutaraldehyde and antigen presentation measured using proliferation of different autologous TTCF-specific T cell clones. c, AEP pre-processing of TTCF speeds antigen presentation. […] Presentation was measured after 60 minutes of antigen pulsing using EBV B cells. […]

C[C@H](NC(=O)OCC1c2ccccc2-c2ccccc21)C(=O)N[C@@H](CCC(=O)O)C(=O)N[C@@H](CCC(N)=O)C(=O)N[C@@H](CCCCN)C(N)=O [AEQK] (Fmoc-AEQK-NH2)
inhibition of processing of TTCF by AEP [1]: did not inhibit
presentation to most clones (eg AK 5, 90 & 6) at early times [2]: detectable
antigen presentation by EBV-B cells [3]: virtually no effect
